Measurements taken from patent US20250368634A1, “PHENYL AMIDE COMPOUNDS AND METHODS OF USE” (SCHRÖDINGER, INC., priority 2022, published 2025).
Read-outs that look alike come from different tables or passages of the source.

Target: SOS1-KRas (G12C) (Homo sapiens (Human), UniProt Q07889)
Assay: SOS1-KRas (G12C) FRET Assay
Assay type: binding
[1] = inhibition of SOS1:KRAS interaction, 0.5 nM His10-SOS1 (res. 564-1049), 2.5 nM GST-KRAS (res. 1-169, G12C), 2 hrs at RT

Sequence of SOS1-KRas (G12C) (Q07889 564-1049, stated change not applied): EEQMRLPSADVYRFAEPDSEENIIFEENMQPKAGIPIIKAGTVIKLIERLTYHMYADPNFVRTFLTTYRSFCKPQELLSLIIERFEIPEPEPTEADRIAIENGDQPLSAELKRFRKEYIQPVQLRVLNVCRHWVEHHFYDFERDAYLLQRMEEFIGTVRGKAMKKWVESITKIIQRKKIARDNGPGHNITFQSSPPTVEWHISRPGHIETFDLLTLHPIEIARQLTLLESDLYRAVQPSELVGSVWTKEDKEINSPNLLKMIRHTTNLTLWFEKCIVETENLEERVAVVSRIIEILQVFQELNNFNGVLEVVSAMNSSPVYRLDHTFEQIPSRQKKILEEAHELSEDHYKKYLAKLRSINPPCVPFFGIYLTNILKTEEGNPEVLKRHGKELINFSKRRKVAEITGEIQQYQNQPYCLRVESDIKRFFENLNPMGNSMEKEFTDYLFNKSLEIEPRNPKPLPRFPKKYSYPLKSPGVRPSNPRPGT

| SMILES | IC50 [1] [nM] | IC50 [nM] |
| --- | --- | --- |
| C[C@@H](NC(=O)c1cc(N2C3CCCC2COC3)c(F)cc1NC1CCN(C)CC1)c1cccc(C(F)F)c1F [Example 39, 5-(3-oxa-9-azabicyclo[3.3.1]nonan-9-yl)-N-((R)-1-(3-(difluoromethyl)-2-fluorophenyl)ethyl)-4-fluoro-2-((1-methylpiperidin-4-yl)amino)benzamide] | 111 |  |
| C[C@@H](NC(=O)c1cc(N2CC[C@@]23CCOC3)c(F)cc1NC1CCN(C)CC1)c1cccc(C(F)F)c1F (single isomer, unassigned) [Example 34] |  | 112 |
| COC(=O)c1cc(C(=O)N[C@H](C)c2cccc(C(F)F)c2F)c(NC2CCN(C)CC2)cc1F [Example 71, methyl (R)-5-((1-(3-(difluoromethyl)-2-fluorophenyl)ethyl)carbamoyl)-2-fluoro-4-((1-methylpiperidin-4-yl)amino)benzoate] | 93.6 |  |

Results, then the compound that gave them:

| IC50 [1] [nM] | IC50 [nM] | SMILES |
| --- | --- | --- |
| 74.5 |  | Cc1c([C@@H](C)NC(=O)c2cc(N3CC4(C3)CS(=O)(=O)C4)c(F)cc2NC2CCN(C)CC2)cccc1C(F)(F)F [Example 8, (R)-5-(2,2-dioxido-2-thia-6-azaspiro[3.3]heptan-6-yl)-4-fluoro-N-(1-(2-methyl-3-(trifluoromethyl)phenyl)ethyl)-2-((1-methylpiperidin-4-yl)amino)benzamide] |
|  | 24.3 | C[C@@H](NC(=O)c1cc(N2CCN(C)CC2)c(F)cc1NC1CCN(C)CC1)c1cccc(C(F)F)c1F [Example 5, (R)—N-(1-(3-(difluoromethyl)-2-fluorophenyl)ethyl)-4-fluoro-5-(4-methylpiperazin-1-yl)-2-((1-methylpiperidin-4-yl)amino)benzamide] |
